Test results published in US10544095B2 (Pfizer Inc., priority 2015, dated 2020).

These compounds were tested against hTDO2 in human glioblastoma A172 cells (Homo sapiens (Human), UniProt P48775) (assay: Cellular assay for TDO2 activity determination in A172 cells). Settings: overnight incubation, kynurenine absorbance at 480 nm.
Type: cell-based
Protocol: The compounds of formula I inhibit the activity of human TDO2 in cells that constitutively express TDO2, such as A172 cells. A172 is a cell line derived from human brain glioblastoma cells. The cells are available from the American Type Culture Collection (ATCC®) as CRL-1620™.
The assay (adapted from Pilotte L et al., Proc Natl Acad Sci USA, 2012, 109(7), 2497-502) was performed in 96-well flat bottom plates seeded with human glioblastoma A172 cells, naturally expressing hTDO2 (prepared as described in Tilman et al., Mol Cancer, 2007, 17(6), 80), at a concentration of 1.25×10^4 cells/well in a final volume of 200 μL. To determine TDO, the cells were incubated overnight at 37° C. at 5% CO2 in IMDM (Invitrogen) supplemented with 2% FBS and 2% penicillin/streptomycin in the presence of the compounds of the present invention, at different concentrations.
The plates were then centrifuged 5 min at 1000 rpm, and 100 μL of the supernatant were collected in a conical plate, 30 μL of TCA 30% were added and a further centrifuged at 3000×g for 10 minutes. 100 μL of the supernatant were collected in a flat bottomed plate and 100 μL of 2% (w/v) 4-(dimethylamino)-benzaldehyde in acetic acid and incubated for 5 min at room temperature. Kynurenine concentrations were determined by measuring the absorbance at 480 nm. A standard curve was made with pure kynurenine. The TDO activity was measured as described above using ten serial concentrations of the compounds of the present invention. Data were fitted using the Prism™ software (GraphPad Software, Inc.) using standard parameters.

Sequence of hTDO2 in human glioblastoma A172 cells (P48775 whole entry): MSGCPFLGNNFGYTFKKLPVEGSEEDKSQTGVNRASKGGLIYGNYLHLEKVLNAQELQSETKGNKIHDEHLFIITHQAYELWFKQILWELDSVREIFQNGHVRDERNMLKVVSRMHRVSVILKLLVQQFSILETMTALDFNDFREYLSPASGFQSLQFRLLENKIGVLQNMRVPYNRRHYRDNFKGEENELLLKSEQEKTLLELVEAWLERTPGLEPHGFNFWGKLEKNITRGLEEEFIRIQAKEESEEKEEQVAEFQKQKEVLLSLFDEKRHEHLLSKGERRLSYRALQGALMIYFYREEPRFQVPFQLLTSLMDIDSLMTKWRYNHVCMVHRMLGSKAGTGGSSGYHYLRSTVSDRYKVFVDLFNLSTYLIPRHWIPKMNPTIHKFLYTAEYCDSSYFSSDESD

Compared with `N[C@H]1CN(C(=O)CCNS(=O)(=O)c2ccc(-c3c[nH]c4cc(F)ccc34)cc2)C[C@H]1F` (single isomer, unassigned) [Example 172, (−)-N-(3-((3S.4R)-3-amino-4-fluoropyrrolidin-1-yl)-3-oxopropyl)-4-(6-fluoro-1H-indol-3-yl)benzenesulfonamide], `N[C@H]1CN(S(=O)(=O)c2ccc(-c3c[nH]c4cc(F)ccc34)cc2)C[C@H]1F` (stereo in doubt) [Example 81, (+)-(cis)-4-fluoro-1-{[4-(6-fluoro-1H-indol-3-yl)phenyl]-sulfonyl}pyrrolidin-3-amine] is 4.2-fold lower in IC50: 957 nM for the first, 230 nM for the second. The second is the more potent here.

Compared with `N[C@H]1CN(C(=O)CCNS(=O)(=O)c2ccc(-c3c[nH]c4cc(F)ccc34)cc2)C[C@H]1F` (single isomer, unassigned) [Example 173], `NC(=O)CCCNS(=O)(=O)c1ccc(-c2c[nH]c3cc(F)ccc23)cc1` [Example 53, 4-(4-(6-fluoro-1H-indol-3-yl)phenylsulfonamido)butanamide] is 4.4-fold lower in IC50: 919 nM for the first, 210 nM for the second.

`C[S+]([O-])CCNS(=O)(=O)c1ccc(-c2c[nH]c3cc(F)ccc23)cc1` (single isomer, unassigned; (+)) [Example 160, (+)-4-(6-fluoro-1H-indol-3-yl)-N-(2-(methylsulfinyl)-ethyl) benzenesulfonamide] and `CN(C)C(=O)CCNS(=O)(=O)c1ccc(-c2c[nH]c3cc(F)ccc23)cc1` [Example 49, 3-(4-(6-fluoro-1H-indol-3-yl)phenylsulfonamido)-N,N-dimethylpropanamide] are within 1.5-fold of each other in IC50: 171 nM for the first, 210 nM for the second.

First: C[S+]([O-])CCNS(=O)(=O)c1ccc(-c2c[nH]c3cc(F)ccc23)cc1 (single isomer, unassigned; (-)) [Example 159, (−)-4-(6-fluoro-1H-indol-3-yl)-N-(2-(methylsulfinyl)-ethyl)benzenesulfonamide]
Second: O=c1[nH]nc(CCNS(=O)(=O)c2ccc(-c3c[nH]c4cc(F)ccc34)cc2)o1 [Example 48, 4-(6-fluoro-1H-indol-3-yl)-N-(2-(5-oxo-4,5-dihydro-1,3,4-oxadiazol-2-yl)ethyl)benzenesulfonamide]
The IC50 of the first is 2-fold lower: 220 nM for the first, 440 nM for the second. The first is the more potent here.

Compared with `C[C@@H]1CN(S(=O)(=O)c2ccc(-c3c[nH]c4cc(F)ccc34)cc2)C[C@H](C)N1` [Example 11, 3-(4-(((cis)-3,5-dimethylpiperazin-1-yl)sulfonyl)phenyl)-6-fluoro-1H-indole], `C[C@@H]1CN(S(=O)(=O)c2ccc(-c3c[nH]c4cc(F)ccc34)cc2)C[C@@H](C)N1` [Example 14, (3R,5R)-3-[4-(3,5-dimethyl-piperazine-1-sulfonyl)-phenyl]-6-fluoro-1H-indole] is 1.7-fold lower in IC50: 320 nM for the first, 190 nM for the second. The second is the more potent here.

`O=S(=O)(c1ccc(-c2c[nH]c3cc(F)ccc23)cc1)N1CCNC(CO)C1` (stereo not drawn) [Example 12, (4-((4-(6-fluoro-1H-indol-3-yl)phenyl)sulfonyl)piperazin-2-yl)-methanol] and `O=S(=O)(c1ccc(-c2c[nH]c3cc(F)ccc23)cc1)N1CCN[C@@H](CO)C1` [Example 17, (R)-(4-((4-(6-fluoro-1H-indol-3-yl)phenyl)sulfonyl)piperazin-2-yl)methanol] are within 1.5-fold of each other in IC50: 140 nM for the first, 200 nM for the second.

`O=S(=O)(c1ccc(-c2c[nH]c3cc(F)ccc23)cc1)N1CCNCC1CO` (stereo not drawn) [Example 13, (1-((4-(6-fluoro-1H-indol-3-yl)phenyl)sulfonyl)piperazin-2-yl)methanol] and `C[C@H]1CN(S(=O)(=O)c2ccc(-c3c[nH]c4cc(F)ccc34)cc2)C[C@H](C)N1` [Example 15, 3-(4-(((3S,5S)-3,5-dimethylpiperazin-1-yl)sulfonyl)phenyl)-6-fluoro-1H-indole] are within 1.5-fold of each other in IC50: 210 nM for the first, 220 nM for the second.

First: CS(=O)(=O)N1CCN(S(=O)(=O)c2ccc(-c3c[nH]c4cc(F)ccc34)cc2)CC1 [Example 19, 6-fluoro-3-(4-((4-(methylsulfonyl)piperazin-1-yl)sulfonyl)phenyl)-1H-indole]
Second: CN1CCN(S(=O)(=O)c2ccc(-c3c[nH]c4cc(F)ccc34)cc2)CC1=O [Example 42, 4-((4-(6-fluoro-1H-indol-3-yl)phenyl)sulfonyl)-1-methylpiperazin-2-one]
The IC50 of the first is 3.8-fold higher: 1000 nM for the first, 260 nM for the second. The second is the more potent here.

Compared with `O=S(=O)(c1ccc(-c2c[nH]c3ccccc23)cc1)N1CCNCC1` [Example 20, 3-(4-(piperazin-1-ylsulfonyl)phenyl)-1H-indole], `O=S(=O)(c1ccc(-c2c[nH]c3cc(F)ccc23)c(F)c1)N1CCNCC1` [Example 22, 6-fluoro-3-(2-fluoro-4-(piperazin-1-ylsulfonyl)-phenyl)-1H-indole] is 2.4-fold higher in IC50: 250 nM for the first, 600 nM for the second.

First: O=S(=O)(c1cc(-c2c[nH]c3cc(F)ccc23)ccc1Cl)N1CCNCC1 [Example 23, 3-(4-chloro-3-(piperazin-1-ylsulfonyl)phenyl)-6-fluoro-1H-indole]
Second: O=S(=O)(c1ccc(-c2c[nH]c3cc(F)ccc23)cc1Cl)N1CCNCC1 [Example 45, 3-(3-chloro-4-(piperazin-1-ylsulfonyl)phenyl)-6-fluoro-1H-indole]
The IC50 of the first is 2.7-fold higher: 630 nM for the first, 230 nM for the second. The second is the more potent here.

Going from `O=S(=O)(c1ccc(-c2c[nH]c3cc(F)ccc23)cc1C(F)(F)F)N1CCNCC1` [Example 24, 6-fluoro-3-(4-(piperazin-1-ylsulfonyl)-3-(trifluoromethyl)-phenyl)-1H-indole] to `O=S(=O)(c1ccc(-c2c[nH]c3cc(F)ccc23)cc1F)N1CCNCC1` [Example 28, 6-fluoro-3-(3-fluoro-4-(piperazin-1-ylsulfonyl)-phenyl)-1H-indole], the IC50 falls from 510 nM to 220 nM (2.3-fold).

Going from `Cc1cc(S(=O)(=O)N2CCNCC2)ccc1-c1c[nH]c2cc(F)ccc12` [Example 25, 6-fluoro-3-(2-methyl-4-(piperazin-1-ylsulfonyl)-phenyl)-1H-indole] to `N#Cc1cc(S(=O)(=O)N2CCNCC2)ccc1-c1c[nH]c2cc(F)ccc12` [Example 37, 2-(6-fluoro-1H-indol-3-yl)-5-(piperazin-1-ylsulfonyl)benzonitrile], the IC50 rises from 1400 nM to 3700 nM (2.6-fold). The first is the more potent here.

First: CN(CCC(N)=O)S(=O)(=O)c1ccc(-c2c[nH]c3cc(F)ccc23)cc1 [Example 27, 3-(4-(6-fluoro-1H-indol-3-yl)-N-methylphenylsulfonamido)-propanamide]
Second: CN(CCCC(N)=O)S(=O)(=O)c1ccc(-c2c[nH]c3cc(F)ccc23)cc1 [Example 54, 4-(4-(6-fluoro-1H-indol-3-yl)-N-methylphenylsulfonamido)-butanamide]
The IC50 of the first is 1.6-fold lower: 160 nM for the first, 250 nM for the second. The first is the more potent here.

First: COc1cc(-c2c[nH]c3cc(F)ccc23)ccc1S(=O)(=O)N1CCNCC1 [Example 29, 6-fluoro-3-(3-methoxy-4-(piperazin-1-ylsulfonyl)-phenyl)-1H-indole]
Second: NC(=O)c1cc(-c2c[nH]c3cc(F)ccc23)ccc1S(=O)(=O)N1CCNCC1 [Example 41, 5-(6-fluoro-1H-indol-3-yl)-2-(piperazin-1-ylsulfonyl)benzamide]
The IC50 of the first is 5.2-fold lower: 190 nM for the first, 990 nM for the second.

Compared with `Cc1cc(-c2c[nH]c3cc(F)ccc23)cc(S(=O)(=O)NCCN)c1` [Example 30, N-(2-aminoethyl)-3-(6-fluoro-1H-indol-3-yl)-5-methyl-benzenesulfonamide], `NCCNS(=O)(=O)c1cc(Cl)cc(-c2c[nH]c3cc(F)ccc23)c1` [Example 38, N-(2-aminoethyl)-3-chloro-5-(6-fluoro-1H-indol-3-yl)-benzenesulfonamide] is 1.6-fold lower in IC50: 3900 nM for the first, 2500 nM for the second. The second is the more potent here.

Going from `CS(=O)(=O)c1cccc(-c2c[nH]c3cc(F)ccc23)c1` [Example 31, 6-fluoro-3-(3-(methylsulfonyl)phenyl)-1H-indole] to `NCCNS(=O)(=O)c1cc(-c2c[nH]c3cc(F)ccc23)ccc1O` [Example 39, N-(2-aminoethyl)-5-(6-fluoro-1H-indol-3-yl)-2-hydroxy-benzenesulfonamide], the IC50 rises from 740 nM to 2900 nM (3.9-fold).

Going from `COc1ccc(-c2c[nH]c3cc(F)ccc23)cc1S(=O)(=O)NCCN` [Example 33] to `NCCNS(=O)(=O)c1cc(-c2c[nH]c3cc(F)ccc23)ccc1F` [Example 43, N-(2-aminoethyl)-2-fluoro-5-(6-fluoro-1H-indol-3-yl)-benzenesulfonamide], the IC50 falls from 910 nM to 410 nM (2.2-fold).

Going from `NCCNS(=O)(=O)c1cc(F)cc(-c2c[nH]c3cc(F)ccc23)c1` [Example 44, N-(2-aminoethyl)-3-fluoro-5-(6-fluoro-1H-indol-3-yl)-benzenesulfonamide] to `O=S(=O)(NC1CCOCC1)c1ccc(-c2c[nH]c3cc(F)ccc23)cc1` [Example 46, 4-(6-fluoro-1H-indol-3-yl)-N-(tetrahydro-pyran-4-yl)-benzenesulfonamide], the IC50 falls from 430 nM to 220 nM (2-fold).

Compared with `CN(C)C(=O)n1cc(-c2ccc(S(=O)(=O)N3CCNCC3)cc2)c2ccc(F)cc21` [Example 47, 6-fluoro-N,N-dimethyl-3-(4-(piperazin-1-ylsulfonyl)phenyl)-1H-indole-1-carboxamide], `CCC(=O)n1cc(-c2ccc(S(=O)(=O)N3CCNCC3)cc2)c2ccc(F)cc21` [Example 51, 1-(6-fluoro-3-(4-(piperazin-1-ylsulfonyl)phenyl)-1H-indol-1-yl)-propan-1-one] is 15-fold lower in IC50: 9600 nM for the first, 630 nM for the second. The second is the more potent here.

`CC(C)CC(=O)n1cc(-c2ccc(S(=O)(=O)N3CCNCC3)cc2)c2ccc(F)cc21` [Example 52, 1-(6-fluoro-3-(4-(piperazin-1-ylsulfonyl)phenyl)-1H-indol-1-yl)-3-methylbutan-1-one] was tested, and the IC50 was 1700 nM.
